{
  "source": "patent US20240425517A1",
  "about": "“NOVEL COMPOUND FOR DEGRADATION OF TARGET PROTEIN OR POLYPEPTIDE BY POLYUBIQUITINATION” (PRAZER THERAPEUTICS INC., priority 2021, published 2024)",
  "data": [
    {"biological_target": "T1, BRD4 proteins (Homo sapiens, UniProt O60885)", "T1 construct": "endogenous in cells; host or cells: MM.1S", "test": "Degradation of BRD4 protein in MM.1S cell lines (Western blot densitometry)", "format": "cell-based", "conditions": "MM.1S cells, 10 μM, 24 hours", "protocol": "To confirm that the compounds (BRD4 degraders) of Preparation Examples I′ to IV′ reduce the amount of BRD4 proteins, experiments were performed using MM.1S cell lines, which are B cells derived from the blood of multiple myeloma patients.\nSpecifically, the MM.1S cells were cultured in RPMI-1640 medium supplemented with 10% fetal bovine serum and Penicillin/Streptomycin (100 U/mL), transferred to a 6-well plate, and after 24 hours, the BRD4 degraders were diluted in the culture medium and the cells were treated with 10 μM each. After treatment, the cells were incubated in a C02 incubator for 24 hours. Through protein immunoblotting (Western Blot), the degrading capacity of each compound against BRD4 proteins in cells was confirmed. After cell culture was completed according to the experimental conditions, the cells were collected and centrifuged at 1,800 rpm for 3 minutes. The cells in the precipitate were lysed with RIPA (25 mM Tris-HCl pH 7.6, 150 mM NaCl, 1% NP-40, 1% sodium deoxycholate, 0.1% SDS, 1× Protease Inhibitor Cocktail), 5× sample buffer was added, and then heated at 100° C. for 15 minutes. The prepared sample was electrophoresed with sodium dodecyl sulfate poly acrylamide gel electrophoresis (SDS-PAGE), and then the proteins in the gel were transferred to a PVDF membrane using Trans-Blot Turbo. The membrane was treated with a 5% bovine serum albumin (BSA) solution and blocked at room temperature for 2 hours, and then BRD4 and R-actin antibodies were diluted in the 5% BSA solution to react with the membrane at 4° C. overnight. After washed with PBST (0.5% Tween20) 5 times, horse radish peroxidase (HRP)-conjugated secondary antibodies were diluted in PBST to react at room temperature for 2 hours, and then washed again with a PBST solution 5 times. After enzyme-substrate reaction was carried out using a HRP substrate, a signal was measured with chemi-doc equipment, and the densitometry of a band corresponding to the BRD4 protein detected in the Preparation Example Compounds was quantitatively analyzed. The case when the degrading capacity of each BRD4 degrader was reduced by less than 40% is indicated as +, the case when the degrading capacity was reduced by 40% to 70% (exclusive of 70) is indicated as ++, the case when the degrading capacity was reduced by 70% or more is indicated as +++ in Tables 16 to 19 below. As shown in the following Tables, it was confirmed that the compounds of Preparation Examples I′ to IV′ according to the present invention have excellent degrading capacity.", "values": [
      {"smiles": "Cc1sc2c(c1C)C(c1ccc(Cl)cc1)=N[C@@H](CC(=O)Nc1ccc(C#CCN)cc1)c1nnc(C)n1-2.Cl", "note": "[1-1′, (S)—N-(4-(3-aminoprop-1-yn-1-yl)phenyl)-2-(4-(4-chlorophenyl)-2,3,9-trimethyl-6H-thieno[3,2-f][1,2,4]triazolo[4,3-a][1,4]diazepin-6-yl)acetamide hydrochloride]", "BRD4 degrading capacity (%)": "++ (the degrading capacity was reduced by 40% to 70% (exclusive of 70))"},
      {"smiles": "Cc1sc2c(c1C)C(c1ccc(Cl)cc1)=N[C@@H](CC(=O)Nc1cccc(C#CCN)c1)c1nnc(C)n1-2.Cl", "note": "[1-3′, (S)—N-(3-(3-aminoprop-1-yn-1-yl)phenyl)-2-(4-(4-chlorophenyl)-2,3,9-trimethyl-6H-thieno[3,2-f][1,2,4]triazolo[4,3-a][1,4]diazepin-6-yl)acetamide hydrochloride]", "BRD4 degrading capacity (%)": "++ (the degrading capacity was reduced by 40% to 70% (exclusive of 70))"},
      {"smiles": "COC(=O)c1cc(NC(=O)C[C@@H]2N=C(c3ccc(Cl)cc3)c3c(sc(C)c3C)-n3c(C)nnc32)ccc1C#CCN.Cl", "note": "[3-1′, methyl (S)-2-(3-aminoprop-1-yn-1-yl)-5-(2-(4-(4-chlorophenyl)-2,3,9-trimethyl-6H-thieno[3,2-f][1,2,4]triazolo[4,3-a][1,4]diazepin-6-yl)acetamido)benzoate hydrochloride]", "BRD4 degrading capacity (%)": "+++ (the degrading capacity was reduced by 70% or more)"},
      {"smiles": "Cc1sc2c(c1C)C(c1ccc(Cl)cc1)=N[C@@H](CC(=O)Nc1ccc(C#CCN)c(C(=O)O)c1)c1nnc(C)n1-2.Cl", "note": "[3-2′, (S)-2-(3-aminoprop-1-yn-1-yl)-5-(2-(4-(4-chlorophenyl)-2,3,9-trimethyl-6H-thieno[3,2-f][1,2,4]triazolo[4,3-a][1,4]diazepin-6-yl)acetamido)benzoic acid hydrochloride]", "BRD4 degrading capacity (%)": "++ (the degrading capacity was reduced by 40% to 70% (exclusive of 70))"},
      {"smiles": "Cc1sc2c(c1C)C(c1ccc(Cl)cc1)=N[C@@H](CC(=O)Nc1ccc(C#CCN)c(CO)c1)c1nnc(C)n1-2.Cl", "note": "[3-3′, (S)—N-(4-(3-aminoprop-1-yn-1-yl)-3-(hydroxymethyl)phenyl)-2-(4-(4-chlorophenyl)-2,3,9-trimethyl-6H-thieno[3,2-f][1,2,4]triazolo[4,3-a][1,4]diazepin-6-yl)acetamide hydrochloride]", "BRD4 degrading capacity (%)": "+++ (the degrading capacity was reduced by 70% or more)"},
      {"smiles": "Cc1sc2c(c1C)C(c1ccc(Cl)cc1)=N[C@@H](CC(=O)Nc1ccc(C#CCN)c(COP(=O)(O)O)c1)c1nnc(C)n1-2", "note": "[3-8′, (S)-2-(3-aminoprop-1-yn-1-yl)-5-(2-(4-(4-chlorophenyl)-2,3,9-trimethyl-6H-thieno[3,2-f][1,2,4]triazolo[4,3-a][1,4]diazepin-6-yl)acetamido)benzyl dihydrogen phosphate trifluoroacetic acid]", "BRD4 degrading capacity (%)": "+ (the degrading capacity of each BRD4 degrader was reduced by less than 40%)"},
      {"smiles": "COC(=O)c1ccc(NC(=O)C[C@@H]2N=C(c3ccc(Cl)cc3)c3c(sc(C)c3C)-n3c(C)nnc32)cc1C#CCN.Cl", "note": "[3-25′, methyl (S)-2-(3-aminoprop-1-yn-1-yl)-4-(2-(4-(4-chlorophenyl)-2,3,9-trimethyl-6H-thieno[3,2-f][1,2,4]triazolo[4,3-a][1,4]diazepin-6-yl)acetamido)benzoate hydrochloride]", "BRD4 degrading capacity (%)": "+++ (the degrading capacity was reduced by 70% or more)"},
      {"smiles": "Cc1sc2c(c1C)C(c1ccc(Cl)cc1)=N[C@@H](CC(=O)Nc1ccc(C(=O)O)c(C#CCN)c1)c1nnc(C)n1-2.Cl", "note": "[3-26′, (S)-2-(3-aminoprop-1-yn-1-yl)-4-(2-(4-(4-chlorophenyl)-2,3,9-trimethyl-6H-thieno[3,2-f][1,2,4]triazolo[4,3-a][1,4]diazepin-6-yl)acetamido)benzoic acid hydrochloride]", "BRD4 degrading capacity (%)": "++ (the degrading capacity was reduced by 40% to 70% (exclusive of 70))"}
    ]}
  ]
}
